Laboratory results: paper PMC12406203 (Journal of Medicinal Chemistry, 2025)
Values joined by “and” are separate entries in the source; they are usually repeats but may differ in a detail not shown here. Equal values may be shown once.

Tests used:
[1] = biological target: p38α MAPK
[2] = tested on: BRAF
[3] = tested on: CDK2
[4] = tested on: CHEK1
[5] = tested on: PLK4
[6] = tested on: ROCK2
[7] = tested on: TSSK1B
[8] = biological target: T1, FAK (Homo sapiens, UniProt Q05397); assay: KINOMEscan; format: binding
T1 construct: purchased Eurofins DiscoverX, LLC; host or cells: E. coli (T7 phage) or HEK-293
Experimental: (§1) The kinase inhibition profile of compounds 94 and 95 was assessed against 103 protein kinases by Eurofins DiscoverX, LLC., using the KINOMEscan assay. Kinase-tagged T7 phage strains were grown in parallel in 24-well blocks in an E. coli host derived from the BL21 strain. E. coli were grown to log-phase and infected with T7 phage from a frozen stock (multiplicity of infection = 0.4) and incubated with shaking at 32 °C until lysis (90–150 min). The lysates were centrifuged (6000g) and filtered (0.2 μm) to remove cell debris. The remaining kinases were produced in HEK-293 cells and subsequently tagged with DNA for qPCR detection. […] The liganded beads were blocked with excess biotin and washed with blocking buffer (SeaBlock (Pierce), 1% BSA, 0.05% Tween 20, 1 mM DTT) to remove unbound ligand and to reduce nonspecific phage binding. […] Test compounds were prepared as 100× stocks in 100% DMSO and directly diluted into the assay. All reactions were performed in polypropylene 384-well plates in a final volume of 0.02 mL. […] The kinase concentration in the eluates was measured by qPCR.
(§2) The compound(s) were screened at the concentration(s) requested, and results for primary screen binding interactions are reported as RA (%), where lower numbers indicate stronger hits in the matrix. RA=(testcompoundsignal−PCsignal/NCsignal−PCsignal)×100

[9] = biological target: T2, IGF1R (Homo sapiens, UniProt P08069); assay: KINOMEscan; format: binding
T2 construct: purchased Eurofins DiscoverX, LLC; host or cells: E. coli (T7 phage) or HEK-293
T2 sequence (P08069 31-1367): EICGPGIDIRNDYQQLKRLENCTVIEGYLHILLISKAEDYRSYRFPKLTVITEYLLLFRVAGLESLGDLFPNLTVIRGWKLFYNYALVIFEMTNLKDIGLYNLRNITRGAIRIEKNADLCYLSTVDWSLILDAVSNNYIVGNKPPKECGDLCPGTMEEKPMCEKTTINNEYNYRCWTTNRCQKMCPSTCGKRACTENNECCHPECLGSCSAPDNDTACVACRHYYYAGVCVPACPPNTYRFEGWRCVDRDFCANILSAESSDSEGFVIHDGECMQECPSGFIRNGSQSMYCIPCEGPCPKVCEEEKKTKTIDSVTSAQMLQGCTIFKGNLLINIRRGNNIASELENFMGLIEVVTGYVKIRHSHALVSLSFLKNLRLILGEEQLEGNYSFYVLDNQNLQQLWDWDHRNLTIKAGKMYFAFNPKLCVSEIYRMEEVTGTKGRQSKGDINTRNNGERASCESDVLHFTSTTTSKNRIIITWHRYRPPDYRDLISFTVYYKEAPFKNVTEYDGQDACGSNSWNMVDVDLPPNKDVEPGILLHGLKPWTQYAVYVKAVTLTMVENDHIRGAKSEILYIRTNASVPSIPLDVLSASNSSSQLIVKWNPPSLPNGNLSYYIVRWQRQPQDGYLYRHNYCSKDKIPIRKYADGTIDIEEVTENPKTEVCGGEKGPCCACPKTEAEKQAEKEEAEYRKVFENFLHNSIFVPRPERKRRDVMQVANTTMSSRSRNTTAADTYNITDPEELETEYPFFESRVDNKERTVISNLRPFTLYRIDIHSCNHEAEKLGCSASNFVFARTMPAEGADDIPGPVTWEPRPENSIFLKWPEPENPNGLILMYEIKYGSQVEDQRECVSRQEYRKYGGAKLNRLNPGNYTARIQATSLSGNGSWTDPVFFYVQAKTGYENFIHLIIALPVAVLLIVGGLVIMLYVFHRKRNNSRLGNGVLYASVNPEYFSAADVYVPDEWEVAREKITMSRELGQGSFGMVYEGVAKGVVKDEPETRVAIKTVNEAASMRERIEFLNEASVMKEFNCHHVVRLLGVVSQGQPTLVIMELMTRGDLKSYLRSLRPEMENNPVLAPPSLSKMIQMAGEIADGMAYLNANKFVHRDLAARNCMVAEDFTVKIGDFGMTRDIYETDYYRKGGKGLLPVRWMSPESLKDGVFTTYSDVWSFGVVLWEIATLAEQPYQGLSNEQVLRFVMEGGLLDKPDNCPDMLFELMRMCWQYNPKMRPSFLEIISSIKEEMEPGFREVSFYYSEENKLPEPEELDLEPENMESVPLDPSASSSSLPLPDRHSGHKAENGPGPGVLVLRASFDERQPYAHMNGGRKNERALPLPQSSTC
Experimental: as §1, §2

[10] = biological target: T3, MAPKAPK2 (Homo sapiens, UniProt P49137); assay: KINOMEscan; format: binding
T3 construct: purchased Eurofins DiscoverX, LLC; host or cells: E. coli (BL21-derived, T7 phage) or HEK-293
T3 sequence (P49137 whole entry): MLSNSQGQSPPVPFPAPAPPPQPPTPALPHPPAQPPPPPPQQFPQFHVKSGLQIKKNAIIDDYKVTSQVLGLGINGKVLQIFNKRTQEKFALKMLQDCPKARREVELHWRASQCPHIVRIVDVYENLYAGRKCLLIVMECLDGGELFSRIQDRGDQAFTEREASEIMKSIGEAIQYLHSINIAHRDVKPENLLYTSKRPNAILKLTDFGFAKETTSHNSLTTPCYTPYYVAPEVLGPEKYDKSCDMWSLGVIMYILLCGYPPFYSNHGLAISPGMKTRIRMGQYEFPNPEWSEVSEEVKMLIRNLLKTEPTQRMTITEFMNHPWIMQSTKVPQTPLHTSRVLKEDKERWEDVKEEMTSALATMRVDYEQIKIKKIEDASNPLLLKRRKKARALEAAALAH
Experimental: as §1, §2

[11] = biological target: T4, MKNK1 (Homo sapiens, UniProt Q9BUB5); assay: KINOMEscan; format: binding
T4 construct: purchased Eurofins DiscoverX, LLC; host or cells: E. coli (BL21-derived, T7 phage) or HEK-293
T4 sequence (Q9BUB5 whole entry): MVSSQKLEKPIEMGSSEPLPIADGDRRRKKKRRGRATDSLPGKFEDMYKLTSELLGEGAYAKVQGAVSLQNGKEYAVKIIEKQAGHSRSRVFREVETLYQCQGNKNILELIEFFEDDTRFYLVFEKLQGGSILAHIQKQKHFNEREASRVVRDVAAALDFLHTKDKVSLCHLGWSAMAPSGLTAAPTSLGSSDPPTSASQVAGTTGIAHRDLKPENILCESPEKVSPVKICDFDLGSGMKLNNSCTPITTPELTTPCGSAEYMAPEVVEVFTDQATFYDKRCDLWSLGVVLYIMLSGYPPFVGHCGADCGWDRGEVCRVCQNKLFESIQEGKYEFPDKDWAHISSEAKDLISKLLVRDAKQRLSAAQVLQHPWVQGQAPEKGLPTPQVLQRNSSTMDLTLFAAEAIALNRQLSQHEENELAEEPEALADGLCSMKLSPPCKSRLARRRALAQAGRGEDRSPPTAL
Experimental: as §1, §2

[12] = biological target: T5, PDGFRB (Homo sapiens, UniProt P09619); assay: KINOMEscan; format: binding
T5 construct: purchased Eurofins DiscoverX, LLC; host or cells: E. coli BL21-derived host (T7 phage) or HEK-293
T5 sequence (P09619 33-1106): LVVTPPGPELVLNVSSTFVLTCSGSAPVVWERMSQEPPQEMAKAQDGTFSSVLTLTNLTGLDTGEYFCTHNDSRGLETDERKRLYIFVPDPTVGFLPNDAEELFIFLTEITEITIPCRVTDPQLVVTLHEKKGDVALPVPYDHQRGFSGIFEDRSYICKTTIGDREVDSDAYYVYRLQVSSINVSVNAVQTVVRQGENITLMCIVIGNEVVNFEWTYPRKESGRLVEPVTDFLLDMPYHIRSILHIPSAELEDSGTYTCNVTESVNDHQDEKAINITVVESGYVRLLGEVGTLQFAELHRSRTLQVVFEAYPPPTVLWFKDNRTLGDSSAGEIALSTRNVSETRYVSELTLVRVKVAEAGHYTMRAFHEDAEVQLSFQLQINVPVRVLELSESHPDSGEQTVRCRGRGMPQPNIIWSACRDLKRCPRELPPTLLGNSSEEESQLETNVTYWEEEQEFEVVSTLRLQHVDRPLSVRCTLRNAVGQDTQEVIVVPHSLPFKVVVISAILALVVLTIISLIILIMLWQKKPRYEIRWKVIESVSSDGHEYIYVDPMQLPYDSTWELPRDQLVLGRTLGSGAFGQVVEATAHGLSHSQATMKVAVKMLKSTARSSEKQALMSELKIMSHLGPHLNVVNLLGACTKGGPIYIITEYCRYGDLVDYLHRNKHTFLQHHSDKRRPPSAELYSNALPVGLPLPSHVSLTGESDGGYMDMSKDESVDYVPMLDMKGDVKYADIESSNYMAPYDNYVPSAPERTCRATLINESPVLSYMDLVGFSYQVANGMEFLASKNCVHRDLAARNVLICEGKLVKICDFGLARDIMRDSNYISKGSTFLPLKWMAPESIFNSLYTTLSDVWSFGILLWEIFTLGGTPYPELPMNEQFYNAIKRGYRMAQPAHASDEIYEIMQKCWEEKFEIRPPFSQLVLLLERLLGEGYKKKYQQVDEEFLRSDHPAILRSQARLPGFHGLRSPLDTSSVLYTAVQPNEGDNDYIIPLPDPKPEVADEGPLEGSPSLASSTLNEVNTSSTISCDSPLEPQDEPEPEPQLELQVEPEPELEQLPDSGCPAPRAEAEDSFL
Experimental: as §1, §2

[13] = biological target: T6, PIK3CG (Homo sapiens, UniProt P48736); assay: KINOMEscan; format: binding
T6 construct: purchased Eurofins DiscoverX, LLC; host or cells: E. coli BL21-derived host (T7 phage) or HEK-293
T6 sequence (P48736 whole entry): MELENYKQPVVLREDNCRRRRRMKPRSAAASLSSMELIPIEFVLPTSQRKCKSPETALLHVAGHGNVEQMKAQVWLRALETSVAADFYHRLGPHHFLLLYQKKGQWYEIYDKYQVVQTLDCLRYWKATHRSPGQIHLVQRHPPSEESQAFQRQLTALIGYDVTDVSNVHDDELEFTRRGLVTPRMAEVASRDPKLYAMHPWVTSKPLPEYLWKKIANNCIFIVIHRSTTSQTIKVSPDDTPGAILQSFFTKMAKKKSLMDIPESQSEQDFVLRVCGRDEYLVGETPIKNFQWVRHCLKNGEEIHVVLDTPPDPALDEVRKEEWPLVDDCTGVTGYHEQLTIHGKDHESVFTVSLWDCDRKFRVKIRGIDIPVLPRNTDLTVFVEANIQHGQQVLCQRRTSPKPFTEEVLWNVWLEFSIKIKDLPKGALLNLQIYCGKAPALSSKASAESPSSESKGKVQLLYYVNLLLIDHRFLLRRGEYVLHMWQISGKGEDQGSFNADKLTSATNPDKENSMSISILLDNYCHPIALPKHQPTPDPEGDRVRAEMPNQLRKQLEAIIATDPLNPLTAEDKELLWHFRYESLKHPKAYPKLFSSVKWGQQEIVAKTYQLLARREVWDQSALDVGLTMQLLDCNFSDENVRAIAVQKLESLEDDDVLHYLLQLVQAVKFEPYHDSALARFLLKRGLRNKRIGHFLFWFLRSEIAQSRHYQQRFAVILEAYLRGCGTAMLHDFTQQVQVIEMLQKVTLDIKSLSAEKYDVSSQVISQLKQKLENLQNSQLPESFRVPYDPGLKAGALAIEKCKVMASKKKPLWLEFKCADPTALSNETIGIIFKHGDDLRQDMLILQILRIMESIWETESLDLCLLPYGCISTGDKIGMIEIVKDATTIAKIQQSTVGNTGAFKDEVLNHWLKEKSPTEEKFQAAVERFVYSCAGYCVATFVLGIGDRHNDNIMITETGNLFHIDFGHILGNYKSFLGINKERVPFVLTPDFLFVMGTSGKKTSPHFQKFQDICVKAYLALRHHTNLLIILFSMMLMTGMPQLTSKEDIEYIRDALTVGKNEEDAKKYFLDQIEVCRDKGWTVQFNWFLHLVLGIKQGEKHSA
Experimental: as §1, §2

[14] = biological target: T7, PIM3 (Homo sapiens, UniProt Q86V86); assay: KINOMEscan; format: binding
T7 construct: purchased Eurofins DiscoverX, LLC; host or cells: E. coli BL21-derived host (T7 phage) or HEK-293
Experimental: as §1, §2

[15] = biological target: T8, PLK4 (Homo sapiens, UniProt O00444); assay: KINOMEscan; format: binding
T8 construct: purchased Eurofins DiscoverX, LLC; host or cells: E. coli BL21-derived host (T7 phage) or HEK-293
T8 sequence (O00444 1-970): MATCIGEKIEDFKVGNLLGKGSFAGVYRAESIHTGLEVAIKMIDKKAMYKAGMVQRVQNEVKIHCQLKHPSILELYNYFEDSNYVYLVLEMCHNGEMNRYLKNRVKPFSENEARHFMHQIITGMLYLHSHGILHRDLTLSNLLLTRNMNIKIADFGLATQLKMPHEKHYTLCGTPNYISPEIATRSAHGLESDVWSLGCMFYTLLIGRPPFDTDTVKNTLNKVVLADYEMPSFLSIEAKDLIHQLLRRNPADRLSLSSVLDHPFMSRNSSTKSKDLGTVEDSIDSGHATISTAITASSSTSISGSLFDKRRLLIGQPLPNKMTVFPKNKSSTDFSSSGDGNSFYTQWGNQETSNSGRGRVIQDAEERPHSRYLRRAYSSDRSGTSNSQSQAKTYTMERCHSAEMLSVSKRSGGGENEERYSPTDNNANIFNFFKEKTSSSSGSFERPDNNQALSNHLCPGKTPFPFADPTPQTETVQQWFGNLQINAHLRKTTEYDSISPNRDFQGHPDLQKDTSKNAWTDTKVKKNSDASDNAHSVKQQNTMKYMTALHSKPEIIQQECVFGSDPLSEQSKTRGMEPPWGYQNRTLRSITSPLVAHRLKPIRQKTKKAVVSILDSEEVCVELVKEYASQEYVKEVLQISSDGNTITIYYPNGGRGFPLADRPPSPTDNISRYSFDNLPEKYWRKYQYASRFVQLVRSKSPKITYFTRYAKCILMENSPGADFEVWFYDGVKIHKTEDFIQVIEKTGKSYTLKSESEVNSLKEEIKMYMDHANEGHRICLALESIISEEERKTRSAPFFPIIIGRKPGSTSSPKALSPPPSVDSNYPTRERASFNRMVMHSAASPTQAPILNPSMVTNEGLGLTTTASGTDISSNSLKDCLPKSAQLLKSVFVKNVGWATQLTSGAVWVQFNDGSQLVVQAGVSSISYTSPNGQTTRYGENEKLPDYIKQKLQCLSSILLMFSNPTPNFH
Experimental: as §1, §2

[16] = biological target: T9, TYK2(JH1domain-catalytic) (Homo sapiens, UniProt P29597); assay: KINOMEscan; format: binding
T9 construct: TYK2(JH1domain-; purchased Eurofins DiscoverX, LLC; host or cells: E. coli BL21-derived host (T7 phage) or HEK-293
T9 sequence (P29597 897-1176 limits assumed): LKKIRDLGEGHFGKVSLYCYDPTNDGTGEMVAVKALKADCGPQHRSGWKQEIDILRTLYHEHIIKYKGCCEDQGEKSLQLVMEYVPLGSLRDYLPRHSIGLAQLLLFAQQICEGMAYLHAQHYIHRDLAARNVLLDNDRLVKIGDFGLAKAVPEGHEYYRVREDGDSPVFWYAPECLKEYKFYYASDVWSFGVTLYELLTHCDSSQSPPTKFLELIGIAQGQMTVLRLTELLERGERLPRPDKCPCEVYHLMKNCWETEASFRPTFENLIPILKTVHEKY
Experimental: as §1, §2

[17] = biological target: T10, p38β (Homo sapiens, UniProt Q15759); assay: KINOMEscan; format: binding
T10 construct: purchased Eurofins DiscoverX, LLC; host or cells: E. coli (BL21-derived, T7 phage) or HEK-293
T10 sequence (Q15759 whole entry): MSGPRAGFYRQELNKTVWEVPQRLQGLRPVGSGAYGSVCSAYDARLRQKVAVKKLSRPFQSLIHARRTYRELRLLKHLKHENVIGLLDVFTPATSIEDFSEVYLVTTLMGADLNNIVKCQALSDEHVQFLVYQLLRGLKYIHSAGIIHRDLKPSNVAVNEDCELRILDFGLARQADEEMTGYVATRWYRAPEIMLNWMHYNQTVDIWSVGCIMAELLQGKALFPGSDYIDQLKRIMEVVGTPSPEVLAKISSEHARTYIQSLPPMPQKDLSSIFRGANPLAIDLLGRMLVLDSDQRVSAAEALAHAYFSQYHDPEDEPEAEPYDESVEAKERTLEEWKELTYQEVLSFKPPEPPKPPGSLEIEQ
Experimental: as §1, §2

CC(C)Cn1ncc2cc(Cc3ccc(F)cc3F)c(C(=O)NCCN(C)C)cc21 [Compound 94, 5-(2,4-Difluorobenzyl)-N-(2-(dimethylamino)ethyl)-1-isobutyl-1H-indazole-6-carboxamide] was tested, and the IC50 [1] was 377 nM and 156 ng/mL, the RA @ 1000nM [2] was 100% and the RA @ 10000nM [2] was 100%. It also gave an RA @ 1000nM [3] of 82%, an RA @ 10000nM [3] of 97% and an RA @ 1000nM [4] of 100%. The RA @ 10000nM [4] was 100%, the RA @ 1000nM [5] was 100% and the RA @ 10000nM [5] was 100%. For the same compound, the RA @ 1000nM [6] was 87%, the RA @ 10000nM [6] was 96% and the RA @ 1000nM [7] was 77%. For the same compound, the RA @ 10000nM [7] was 89%, the “RA @ 1000nM” value [8] was 96% and the “RA @ 10000nM” value [8] was 89%. For the same compound, the “RA @ 1000nM” value [9] was 94%, the “RA @ 10000nM” value [9] was 84% and the “RA @ 1000nM” value [10] was 100%. The “RA @ 10000nM” value [10] was 84%, the “RA @ 1000nM” value [11] was 100% and the “RA @ 10000nM” value [11] was 100%. For the same compound, the “RA @ 1000nM” value [12] was 100%, the “RA @ 10000nM” value [12] was 97% and the “RA @ 1000nM” value [13] was 86%. For the same compound, the “RA @ 10000nM” value [13] was 85%, the “RA @ 1000nM” value [14] was 100% and the “RA @ 10000nM” value [14] was 100%. The “RA @ 1000nM” value [15] was 100%, the “RA @ 10000nM” value [15] was 100% and the “RA @ 1000nM” value [16] was 78%. For the same compound, the “RA @ 10000nM” value [16] was 79%, the “RA @ 1000nM” value [17] was 72% and the “RA @ 10000nM” value [17] was 15%.
CN(C)CCNC(=O)c1cc2c(cnn2CC2CCCCC2)cc1Cc1ccc(F)cc1F [Compound 95, 1-(Cyclohexylmethyl)-5-(2,4-difluorobenzyl)-N-(2-(dimethylamino)ethyl)-1H-indazole-6-carboxamide] was tested, and the IC50 [1] was 191 nM and 87 ng/mL, the RA @ 1000nM [2] was 100% and the RA @ 10000nM [2] was 100%. It also gave an RA @ 1000nM [3] of 99%, an RA @ 10000nM [3] of 100% and an RA @ 1000nM [4] of 100%. It also gave an RA @ 10000nM [4] of 100%, an RA @ 1000nM [5] of 100% and an RA @ 10000nM [5] of 100%. It also gave an RA @ 1000nM [6] of 83%, an RA @ 10000nM [6] of 100% and an RA @ 1000nM [7] of 100%. For the same compound, the RA @ 10000nM [7] was 79%, the “RA @ 1000nM” value [8] was 92% and the “RA @ 10000nM” value [8] was 94%. For the same compound, the “RA @ 1000nM” value [9] was 100%, the “RA @ 10000nM” value [9] was 93% and the “RA @ 1000nM” value [10] was 100%. The “RA @ 10000nM” value [10] was 100%, the “RA @ 1000nM” value [11] was 100% and the “RA @ 10000nM” value [11] was 100%. For the same compound, the “RA @ 1000nM” value [12] was 100%, the “RA @ 10000nM” value [12] was 96% and the “RA @ 1000nM” value [13] was 92%. For the same compound, the “RA @ 10000nM” value [13] was 97%, the “RA @ 1000nM” value [14] was 100% and the “RA @ 10000nM” value [14] was 100%. For the same compound, the “RA @ 1000nM” value [15] was 100%, the “RA @ 10000nM” value [15] was 100% and the “RA @ 1000nM” value [16] was 89%. The “RA @ 10000nM” value [16] was 75%, the “RA @ 1000nM” value [17] was 84% and the “RA @ 10000nM” value [17] was 18%.
